From patent US20060223812A1, “Treating neurodegenerative conditions” (MAX-PLANCK-GESELLSCHAFT ZUR FORDERUNGDER WISSENSCHAFTEN, …, priority 2004, published 2006)
Like-named read-outs stand apart in the source and are kept apart here.

Experiments:
[1] = tested on: PHFs from K18/ΔK280; assay: Thioflavine S assay, depolymerisation of pre-formed PHFs, K18/ΔK280 without heparin; type: biochemical, human; details: ThS fluorescence, PHFs made without heparin
Experimental: The ThS assay was used to analyse the ability of the five compounds (see Example 4) to depolymerise pre-formed PHFs made from the repeat domain constructs K19 and K18 as well as from isoforms htau23 and htau24, containing 3 or 4 repeats, respectively.
The higher DC50 values for K18/ΔK280 point to the higher stability of PHFs formed by this mutant.
Tau constructs and isoforms K19, K18, hTau23, hTau24 (10 μM) were first aggregated into PHFs for 48 hours in the presence of 2.5 μM heparin (except K18/ΔK280) and the polymers separated from the soluble tau by centrifugation of 1 h at 100,000 g, redissolved and then exposed to the inhibitors overnight at 37° C. at the indicated concentrations (range 0.001-200 μM). The compounds are capable of disassembling PHFs with varying efficiencies (see Table 2).

[2] = tested on: K18/Y310W; assay: Tryptophan fluorescence inhibition assay, K18/Y310W; type: biochemical, human; details: 60 μM compound
Description: In order to exclude a possible distortion of the data by the dye the results of the ThS assays can be confirmed by a tryptophan fluorescence assay (Li et al., 2002). It allows the detection of the molecular environment of a tryptophan introduced instead of tyrosine 310 whose emission maximum is sensitive to the burial in a more hydrophobic surrounding upon PHF formation. Therefore the mutants K19/Y310W (FIG. 1I) and K18/Y310W (FIG. 1H) that contain a single tryptophan within the core of the PHF structure were created. In the soluble protein the emission maximum lies at ˜354 nm, whereas it shifts to 340 nm upon PHF formation (FIG. 3A, compare first and second entry). The emission peak can be shifted back by incubation at high concentrations of GuHCl which is due to the disassembly of the PHFs (FIG. 3A, fourth entry).
The fluorescence experiments were performed on a Spex Fluoromax spectrophotometer (Polytec, Waldbronn, Germany) using 3 mm×3 mm micro cuvettes from Hellma (Mühlheim, Germany) with 20 μl sample volumes. A tryptophan emission spectrum scans from 300 to 450 nm at fixed excitation wavelength of 290 nm. The slit widths were 5 nm, the integration time was 0.25 second, and the photomultiplier voltage was 950 V. For fluorescence inhibition assay, 60 μM compounds were incubated with K19/Y310W construct (10 μM) or K18/ΔK280/Y310W and heparin (2.5 μM) in PBS, pH 7.4 three days at 37° C.
In the Trp fluorescence assay the inhibition of PHF assembly becomes apparent if the emission maximum of Trp310 remains higher than that of the control without any compound, because Trp310 remains in a more solvent-accessible hydrophilic environment. The three repeat tau construct K19 (at 10 μM) was prevented from polymerisation by about 90% by the presence of all compounds at a concentration, of 60 μM (FIG. 3A, note that entries 5-9 retain their values around 354 nm, similar to the control #1). […] The internal ranking stays roughly the same as with K18; PHF005 (#9) is the best, PHF016 (#8) the worst inhibitor. […] The apparent degrees of inhibition differ somewhat between the ThS fluorescence and the intrinsic Trp fluorescence assays, but this may be due to the different origins of the signal. In the ThS assay the dye has to bind to the filaments, which requires a minimal length of the fibres. The tryptophan fluorescence assay depends on the local surrounding of the residue and is therefore less dependent on the length of the filaments.
(A-C) fluorescence emission maximum of the single tryptophan W310 inserted by site-directed mutagenesis into tau constructs K19 (FIG. 3A), K18 (FIG. 3B) and K18/ΔK280 (FIG. 3C). Fully solvent-accessible Trp has an emission maximum at ˜355 nm, a blue-shift to lower wavelengths is an indicator of PHF aggregation. […]

[3] = target: T1, htau24 (Homo sapiens, UniProt P10636); assay: Thioflavine S assay, inhibition of PHF formation, htau24; type: biochemical; details: for IC50: ThS fluorescence, read-out: Inhibition of tau aggregation IC50, hTau24; for inhibition at 60 µM: read-out: inhibition of PHF formation, htau24; for effect on PHF formation, htau24: compared to htau23
T1 construct: made in house; host or cells: E. coli
Experimental: Assembly of synthetic PHFs of tau protein (K19, 10 μM) was performed at 37° C. in the presence of polyanions (heparin; 5 μM) in 50 mM NH4Ac, pH 6.8. Assembly was followed either qualitatively by electron microscopy or quantitatively by fluorescence assay using thioflavine S. PHF-formation of tau isoforms htau23 and htau24 was carried out in PBS-buffer pH 7.4, 50 μM protein, and 12.5 μM heparin. The samples were incubated at 50° C. for 10 days. In the case of htau24 and K18, DTT was added at a final concentration of 1 mM each day in order to avoid intra-molecular disulfide crosslinking (Barghorn et al., 2000).

T1 sequence (P10636 1-383 isoform P10636-6): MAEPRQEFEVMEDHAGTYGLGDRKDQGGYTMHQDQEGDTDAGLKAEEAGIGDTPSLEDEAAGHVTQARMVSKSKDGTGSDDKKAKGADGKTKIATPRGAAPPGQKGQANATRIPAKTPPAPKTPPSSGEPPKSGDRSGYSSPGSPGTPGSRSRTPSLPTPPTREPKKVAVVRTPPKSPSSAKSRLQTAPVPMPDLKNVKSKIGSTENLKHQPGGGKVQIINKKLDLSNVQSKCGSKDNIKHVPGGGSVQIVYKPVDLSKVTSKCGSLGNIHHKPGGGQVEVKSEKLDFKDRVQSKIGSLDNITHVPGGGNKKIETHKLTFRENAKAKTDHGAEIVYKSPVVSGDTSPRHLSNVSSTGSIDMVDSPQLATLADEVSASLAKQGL

| SMILES | DC50 [1] [µM] | inhibition of PHF formation, K18/Y310W, Trp fluorescence [2] | IC50 [3] [µM] | inhibition at 60 µM [3] [%] | Depolymerisation of PHFs DC50, K18/ΔK280 [1] | effect on PHF formation, htau24 [3] | inhibition at 60 µM ([3]; 60 μM compound) [%] |
| --- | --- | --- | --- | --- | --- | --- | --- |
| COc1cccc2c1C(=O)c1c(O)c3c(c(O)c1C2=O)CC(O)(C(C)=O)CC3OC1CC(N)C(O)C(C)O1 (centres unmarked) [Daunorubicin, 8-Acetyl-10-(4-amino-5-hydroxy-6-methyl-tetrahydro-pyran-2-yloxy)-6,8,11-trihydroxy-1-methoxy-7,8,9,10-tetrahydro-naphthacene-5,12-dione, reference compound] | 7.7 | about 70% | 3.4 | 70 to 90 |  |  |  |
| O=C1c2ccc(O)c(O)c2C(=O)c2c(O)ccc(O)c21 [PHF016, 1,2,5,8-Tetrahydroxy-anthraquinone] | > 60 | 25% | > 60 |  | not accurately detectable | only a small effect |  |
| O=C(c1ccccc1)c1ccc(O)c(O)c1O [PHF005, 1-Phenyl-1-(2,3,4-trihydroxy-phenyl)-methanone] | > 100 |  | > 100 |  | not accurately detectable | only a small effect |  |
| Cc1cc(O)c2c(c1)C(=O)c1cc(O)cc(O)c1C2=O [Emodin, 1,3,8-Trihydroxy-6-methyl-anthraquinone] | 2.7 | about 70% | 1.8 |  |  |  | 70 to 90 |
| COc1cccc2c1C(=O)c1c(O)c3c(c(O)c1C2=O)CC(O)(C(=O)CO)CC3OC1CC(N)C(O)C(C)O1 (centres unmarked) [Adriamycin, 10-(4-Amino-5-hydroxy-6-methyl-tetrahydro-pyran-2-yloxy)-6,8,11-trihydroxy-8-(2-hydroxyethanoyl)-1-methoxy-7,8,9,10-tetrahydro-naphthacene-5,12-dione, reference compound] | 22 | about 70% | 2.7 |  |  |  |  |
